Experimental data taken from patent publication US5939403A, “Keratan sulfate oligosaccharide fraction and pharmaceutical containing the same” (Seikagaku Corporation, priority 1994, dated 1999).
Where a name gives a salt, the structure may show the parent alone.

Assays:
[1] = tested on: mesenteric lymph node and submandibular lymph node; assay: Cell differentiation induction: staining concentration of lymph node sections (HE staining); assay type: in vivo, MRL-lpr/lpr mice; settings: four weeks
Experimental: The PBS solution of the purified keratan sulfate disaccharide (III) which was prepared in Example 1 described above at a dose of 1 mg/kg, 5 mg/kg, or 25 mg/kg weight (hereinafter referred to as the 1 mg/kg administered group, the 5 mg/kg administered group, and the 25 mg/kg administered group, respectively), and PBS as the control (hereinafter sometimes referred to as the control group) was intramuscularly injected, respectively, to the femoral region of MRL-lpr/lpr mice seven times a week for four weeks. After that, the mice were subjected to anatomization to prepare the section specimens (HE staining) of mesenteric lymph node and submandibular lymph node. The staining concentrations per unit area of the specimens were analyzed by an image analyzer (PIAS). In the undifferentiated cells, the staining concentration per unit area is low because proportion of the cytoplasm is high and the nuclei is stained thinly. In the differentiated cells, the staining concentration per unit area is high because proportion of the nuclei is high and it is stained thickly.
The results of the analysis of mesenteric lymph nodes and submandibular lymph nodes are shown in FIG. 17 and FIG. 18 with the standard errors, respectively. In the figures, ** represents that it has the significant difference with p<0.01 (wherein "p" means a level of significance by the Bonferroni multiple comparative test). […]

MRL-lpr/lpr mice = assay: Repeated intramuscular administration for 28 days in MRL mice (submandibular lymph node weight); assay type: in vivo
Experimental: The effect of the keratan sulfate oligosaccharide was examined on MRL mice which are autoimmune disease model mice.
The PBS solution of the purified keratan sulfate disaccharide (III) which was prepared in Example 1 described above at a dose of 1 mg/kg, 5 mg/kg, or 25 mg/kg weight (hereinafter referred to as the 1 mg/kg administered group, the 5 mg/kg administered group, and the 25 mg/kg administered group, respectively), and PBS as the control (hereinafter sometimes referred to as the control group) was intramuscularly injected, respectively, to the femoral region of MRL-lpr/lpr mice seven times a week for four weeks. After that, the mice were subjected to anatomization, and the weight of submandibular lymph nodes was determined to obtain the average weight. In each group, six mice were used. Further, in the figure, * represents that it has the significant difference with p<0.05 (wherein "p" means a level of significance by the Bonferroni multiple comparative test).

papain-induced arthritis = assay: Papain-induced bilateral arthritis model, intramuscular administration (volume of synovial fluid); assay type: in vivo, Japanese white rabbits (female); settings: 0.5 mg/kg intramuscular
Experimental: The anti-inflammatory effect of the keratan sulfate oligosaccharide with rabbits of the papain-induced arthritis model was examined using the volume of synovial fluid as an indication.
Into the articular cavity of both knee joint of Japanese white rabbits (female) of 3 kg weight, 150 μl of the saline solution of papain (1%) was injected to prepare the arthritis model. […]
Seven days after the injection, the blood was drawn from the auricular artery, and plasma containing heparin was separated. […] The calcium concentrations in the plasma and the recovered synovial fluid were determined, and the volume of synovial fluid was calculated from the following formula. […]
The arthritis model was prepared by the method described in (1-1), and one day after injecting papain, 150 μl of the PBS solution of the purified keratan sulfate tetrasaccharide (I) (1% solution; 0.5 mg/kg weight) which was prepared in Example 1 was injected into the hip muscle of the left side (hereinafter referred to as "the keratan sulfate tetrasaccharide (I) administered group"). […] Seven days after the injection, the volume of synovial fluid was calculated in the same manner as in (1-1).

Row | SMILES | staining concentration per unit area (FIG. 17, FIG. 18) ([1]; 5 mg/kg and 25 mg/kg i.m., p<0.01) | staining concentration per unit area (FIG. 17, FIG. 18) ([1]; any dose (1, 5, 25 mg/kg i.m.)) | weight increase in submandibular lymph nodes (FIG. 14) (MRL-lpr/lpr mice; 5 mg/kg i.m., p<0.05) | weight increase in submandibular lymph nodes (FIG. 14) (MRL-lpr/lpr mice; any dose (1, 5, 25 mg/kg i.m.)) | volume of synovial fluid (result in words) (papain-induced arthritis; bilateral model) | Volume of Synovial Fluid (papain-induced arthritis; 7 days, n = 12, SD 65.8, p < 0.01, control 729, normal 437) [µL]
1 | CC(=O)N[C@H]1C(O)O[C@H](COS(=O)(=O)O)[C@@H](O[C@@H]2O[C@H](COS(=O)(=O)O)[C@H](O)[C@H](O)[C@H]2O)[C@@H]1O (stereo partly drawn) [keratan sulfate disaccharide (III), Gal(6S)β1-4GlcNAc(6S)] | the staining concentrations increased significantly compared with the control group | an increase in the staining concentration per unit area (decrease in relative lightness) was observed | a significant suppressive effect on the weight increase was observed compared with the control group | a suppressive effect on the weight increase in submandibular lymph nodes was observed |  | 
2 | CC(=O)N[C@H]1[C@H](O[C@H]2[C@@H](O)[C@@H](COS(=O)(=O)O)O[C@@H](O[C@H]3[C@H](O)[C@@H](NC(C)=O)C(O)O[C@@H]3COS(=O)(=O)O)[C@@H]2O)O[C@H](COS(=O)(=O)O)[C@@H](O[C@@H]2O[C@H](COS(=O)(=O)O)[C@H](O)[C@H](O)[C@H]2O)[C@@H]1O (stereo partly drawn) [keratan sulfate tetrasaccharide (I), Gal(6S)β1-4GlcNAc(6S)β1-3Gal(6S)β1-4GlcNAc(6S)] |  |  |  |  | significantly less than that in the control group | 561
